Results reported in patent US9278990B2, “Substituted nucleotide analogs” (priority 2010, dated 2016).

B1: IFN-Lambda 1 (protein, UniProt Q8IU54 20-200, looked up)
Interferon lambda-1: GPVPTSKPTTTGKGCHIGRFKSLSPQELASFKKARDALEESLKLKNWSCSSPVFPGNWDLRLLQVRERPVALEAELALTLKVLEAAAGPALEDVLDQPLHTLHHILSQLQACIQPQPTAGPRPRGRLHHWLHRLQEAPKKESAGCLEASVTFNLFRLLTRDLKYVADGNLCLRTSTHPEST
B2: IFN-Lambda 2 (protein, UniProt Q8IZJ0 26-200, looked up)
Interferon lambda-2: VPVARLHGALPDARGCHIAQFKSLSPQELQAFKRAKDALEESLLLKDCRCHSRLFPRTWDLRQLQVRERPMALEAELALTLKVLEATADTDPALVDVLDQPLHTLHHILSQFRACIQPQPTAGPRTRGRLHHWLYRLQEAPKKESPGCLEASVTFNLFRLLTRDLNCVASGDLCV
B3: IFN-Lambda 3 (protein, UniProt Q8IZI9 22-196, looked up)
Interferon lambda-3: VPVARLRGALPDARGCHIAQFKSLSPQELQAFKRAKDALEESLLLKDCKCRSRLFPRTWDLRQLQVRERPVALEAELALTLKVLEATADTDPALGDVLDQPLHTLHHILSQLRACIQPQPTAGPRTRGRLHHWLHRLQEAPKKESPGCLEASVTFNLFRLLTRDLNCVASGDLCV

These molecules were tested on HCV genotype 1b HCV replicon harbored in Huh7 cells (assay: Combination testing in HCV replicon (CalcuSyn CI and MacSynergy II synergy volume)). Conditions: combination of compound 3b with the listed combination compound; MacSynergy II (Bliss independence); 72 h; 25-100 synergistic, >100 strongly synergistic.
Format: cell-based
Description: Two or more test compounds were tested in combination with each other using an HCV genotype 1b HCV replicon harbored in Huh7 cells with a stable luciferase (LUC) reporter. Cells were cultured under standard conditions in Dulbecco's modified Eagle's medium (DMEM; Mediatech Inc, Herndon, Va.) containing 10% heat-inactivated fetal bovine serum (FBS; Mediatech Inc, Herndon, Va.) 2 mM L-glutamine, and nonessential amino acids (JRH Biosciences). HCV replicon cells were plated in a 96-well plate at a density of 10^4 cells per well in DMEM with 10% FBS. […] The cells were incubated with no compound as a control, with the test compounds, or the combination of compounds for 72 h. The direct effects of the combination of the test compounds were examined using a luciferase (LUC) based reporter as determined by the Bright-Glo Luciferase Assay (Promega, Madison, Wis.). Dose-response curves were determined for individual compounds and fixed ratio combinations of two or more test compounds.
The effects of test compound combinations were evaluated by two separate methods. In the Loewe additivity model, the experimental replicon data was analyzed by using CalcuSyn (Biosoft, Ferguson, Mo.), a computer program based on the method of Chou and Talalay. The program uses the experimental data to calculate a combination index (CI) value for each experimental combination tested. A CI value of <1 indicates a synergistic effect, a CI value of 1 indicates an additive effect, and a CI value of >1 indicates an antagonistic effect.
The second method utilized for evaluating combination effects used a program called MacSynergy II. MacSynergy II software was kindly provided by Dr. M. Prichard (University of Michigan). The Prichard Model allows for a three-dimensional examination of drug interactions and a calculation of the synergy volume (units: μM^2 %) generated from running the replicon assay using a checkerboard combination of two or more inhibitors. The volumes of synergy (positive volumes) or antagonism (negative volumes) represent the relative quantity of synergism or antagonism per change in the concentrations of the two drugs. Synergy and antagonism volumes are defined based on the Bliss independence model. In this model, synergy volumes of less than −25 indicate antagonistic interactions, volumes in the −25-25 range indicate additive behavior, volumes in the 25-100 range indicate synergistic behavior and volumes >100 indicate strong synergistic behavior.

Compared with `COc1ccc2c(O[C@@H]3C[C@H]4C(=O)N[C@]5(C(=O)O)C[C@H]5/C=C\CCCCC[C@H](NC(=O)OC5CCCC5)C(=O)N4C3)cc(-c3csc(NC(C)C)n3)nc2c1` [BILN-2061], `COC(=O)N[C@H](C(=O)N1CCC[C@H]1c1nc(-c2ccc(-c3ccc(-c4c[nH]c([C@@H]5CCCN5C(=O)[C@@H](NC(=O)OC)C(C)C)n4)cc3)cc2)c[nH]1)C(C)C` [BMS-790052] is lower in “Synergy Volume” value: 31 μM^2% for the first, 26 μM^2% for the second.

Going from `CCc1cc(CC[C@]2(C3CCCC3)CC(O)=C(Cc3nc4nc(C)cc(C)n4n3)C(=O)O2)cc(CC)n1` [Filibuvir] to `Fc1ccccc1-c1nc2ccn(Cc3ccc(-c4ccc(C(F)(F)F)cc4C(F)(F)F)nn3)cc-2n1` [GS-9190], the “Synergy Volume” value rises from 23 μM^2% to 79 μM^2%.

Compared with `CNC(=O)c1c(-c2ccc(F)cc2)oc2cc(N(CCO)S(C)(=O)=O)c(C3CC3)cc12` [HCV-796], `COc1nc(N)nc2c1ncn2[C@@H]1O[C@H](COP(=O)(N[C@@H](C)C(=O)OCC(C)(C)C)Oc2cccc3ccccc23)[C@@H](O)[C@@]1(C)O` (stereo partly shown) [INX-189] is higher in “Synergy Volume” value: 31 μM^2% for the first, 65 μM^2% for the second.

Compared with `CC(C)(C)OC(=O)N[C@H]1CCCCC/C=C\[C@@H]2C[C@@]2(C(=O)NS(=O)(=O)C2CC2)NC(=O)[C@@H]2C[C@@H](OC(=O)N3Cc4cccc(F)c4C3)CN2C1=O` [ITMN-191], `CCOc1nc(N)nc2c1ncn2[C@@H]1O[C@@H]2COP(=O)(OC(C)C)O[C@H]2[C@@]1(C)F` (stereo partly shown) [PSI-938] is lower in “Synergy Volume” value: 126 μM^2% for the first, 27 μM^2% for the second.

First: C[C@@]1(F)[C@H](O)[C@@H](CO)O[C@H]1n1ccc(N)nc1=O [PSI-6130]
Second: CC(C)OC(=O)[C@H](C)NP(=O)(OC[C@H]1O[C@@H](n2ccc(=O)[nH]c2=O)[C@](C)(F)[C@@H]1O)Oc1ccccc1 (stereo partly shown) [PSI-7851]
The “Synergy Volume” value of the first is higher: 15 μM^2% for the first, 0 μM^2% for the second.

First: NC(=O)c1ncn([C@@H]2O[C@H](CO)[C@@H](O)[C@H]2O)n1 [Ribavirin, ribavirin]
Second: COc1ccc2c(O[C@@H]3C[C@H]4C(=O)N[C@]5(C(=O)NS(=O)(=O)C6CC6)C[C@H]5/C=C\CCCCN(C)C(=O)[C@@H]4C3)cc(-c3nc(C(C)C)cs3)nc2c1C [TMC-435]
The “Synergy Volume” value of the first is lower: 22 μM^2% for the first, 126 μM^2% for the second.

Going from `CC(C)(C)C#Cc1cc(N(C(=O)[C@H]2CC[C@H](C)CC2)[C@H]2CC[C@H](O)CC2)c(C(=O)O)s1` [VX-222] to `CCC[C@H](NC(=O)[C@@H]1[C@H]2CCC[C@H]2CN1C(=O)[C@@H](NC(=O)[C@@H](NC(=O)c1cnccn1)C1CCCCC1)C(C)(C)C)C(=O)C(=O)NC1CC1` [VX-950, Telaprevir], the “Synergy Volume” value rises from 38 μM^2% to 76 μM^2%.

Compared with B1, B2 is lower in “Synergy Volume” value: 116 μM^2% for the first, 34 μM^2% for the second.

For B3, the “Synergy Volume” value was 35 μM^2%.

Each molecule was assayed against T1, NS5B570-Con1 (Delta-21) (Hepatitis C virus genotype 1b, UniProt Q9WMX2) (assay: NS5B inhibition assay). Conditions: IC50 value, incorporation of tritiated NMP into acid-insoluble RNA, 2 hours at 37° C.
T1 construct: NS5B570-Con1 (Delta-21)
Format: biochemical, HCV
Description: The enzyme activity of NS5B570-Con1 (Delta-21) was measured as an incorporation of tritiated NMP into acid-insoluble RNA products. The complementary IRES (cIRES) RNA sequence was used as a template, corresponding to 377 nucleotides from the 3′-end of HCV (−) strand RNA of the Con-1 strain, with a base content of 21% Ade, 23% Ura, 28% Cyt, and 28% Gua. The cIRES RNA was transcribed in vitro using a T7 transcription kit (Ambion, Inc.) and purified using the Qiagen RNeasy maxi kit. HCV polymerase reactions contained 50 nM NS5B570-Con1, 50 nM cIRES RNA, about 0.5 μCi tritiated NTP, 1 μM of competing cold NTP, 20 mM NaCl, 40 mM Tris-HCl (pH 8.0), 4 mM dithiothreitol, and 4 mM MgCl2. Standard reactions were incubated for 2 hours at 37° C., in the presence of increasing concentration of inhibitor. At the end of the reaction, RNA was precipitated with 10% TCA, and acid-insoluble RNA products were filtered on a size exclusion 96-well plate. After washing of the plate, scintillation liquid was added and radio labeled RNA products were detected according to standard procedures with a Trilux Topcount scintillation counter.

Compared with `C[C@@]1(O)[C@H](O)[C@@H](COP(O)(=S)OP(=O)(O)OP(=O)(O)O)O[C@H]1n1ccc(=O)[nH]c1=O` (single isomer, unassigned) [Compound 5a], `C[C@@]1(F)[C@H](O)[C@@H](COP(O)(=S)OP(=O)(O)OP(=O)(O)O)O[C@H]1n1ccc(=O)[nH]c1=O` (single isomer, unassigned) [Compound 5c] is lower in IC50: 10 to 100 µM for the first, 1 to 10 µM for the second. The second is the more potent here.

First: C[C@@]1(O)[C@H](O)[C@@H](COP(O)(=S)OP(=O)(O)OP(=O)(O)O)O[C@H]1n1ccc(=O)[nH]c1=O (single isomer, unassigned) [Compound 5b]
Second: C[C@@]1(F)[C@H](O)[C@@H](COP(O)(=S)OP(=O)(O)OP(=O)(O)O)O[C@H]1n1ccc(=O)[nH]c1=O (single isomer, unassigned) [Compound 5d]
The IC50 of the first is lower: under 1 µM for the first, 10 to 100 µM for the second. The first is the more potent here.

`C[C@@]1(F)[C@H](O)[C@@H](COP(O)(=S)OP(=O)(O)OP(=O)(O)O)O[C@H]1n1cnc2c(=O)[nH]c(N)nc21` (single isomer, unassigned) [Compound 5e] and `C[C@@]1(O)[C@H](O)[C@@H](COP(O)(=S)OP(=O)(O)OP(=O)(O)O)O[C@H]1n1cnc2c(=O)[nH]c(N)nc21` (single isomer, unassigned) [Compound 5g] cannot be ordered by IC50: under 1 µM for the first, under 1 µM for the second.

In the case of `C[C@@]1(O)[C@H](O)[C@@H](COP(O)(=S)OP(=O)(O)OP(=O)(O)O)O[C@H]1n1cnc2c(=O)[nH]c(N)nc21` (single isomer, unassigned) [Compound 5h], the IC50 is reported as 1 to 10 µM.

Same assay, conditions: read-out: IC50 value, incorporation of tritiated NMP into acid-insoluble RNA, 2 hours at 37° C.

`C[C@@]1(F)[C@H](O)[C@@H](COP(O)(=S)OP(=O)(O)OP(=O)(O)O)O[C@H]1n1cnc2c(=O)[nH]c(N)nc21` (single isomer, unassigned) [Compound 5f] was tested, and the IC50 was under 1 µM.
